# Measured values published in patent publication US20250128203A1, “MODIFIED REDOX-ACTIVE SORBENTS FOR ELECTROCHEMICAL CARBON DIOXIDE SEPARATION” (The Johns Hopkins University, priority 2023, published 2025).
# Where “and” joins values, the source holds several entries; their conditions need not be identical. Equal entries are not always repeated.
# Key:
# [1] = UV-vis absorption, optical band gap; assay type: physicochemical; details: UV-vis absorption (Kubelka-Munk spectra)
# Procedure: UV-vis absorption spectra were recorded on a Thermo Scientific Genesys 10S UV-vis spectrophotometer.
# [2] = Cyclic voltammetry of isoindigos in DMF (half-wave redox potentials under N2 or CO2); assay type: physicochemical; details: for E1/2 in N2 (first): first half-wave potential vs. Fc^+/Fc; for E1/2 in N2 (first) / E1/2 in N2 (second): 0.1 M NBu4PF6, N2, 298 K; for E1/2 in N2 (second) / E1/2 in CO2 (second): second half-wave potential vs. Fc^+/Fc; for E1/2 in CO2 (first or single) / Experimental 1st half-wave potential in N2: vs. Fc^+/Fc; for E1/2 in CO2 (first or single) / E1/2 in CO2 (second): 0.1 M NBu4PF6, CO2, 298 K; for E1/2 (IId/IId·−) in N2: Table 1, first electron transfer, N2, DMF; for Experimental 1st half-wave potential in N2: Table 5
# Procedure: (§1) Electrochemical measurements were conducted using a BioLogic VSP potentiostat (BioLogic Science Instruments). For the cyclic voltammetry measurements, glassy carbon (Ø=3 mm) was used as the working electrode, platinum wire was used as the counter electrode, silver wire was used as the pseudo-reference electrode and ferrocene was used as the internal reference. In a standard cyclic voltammetry measurement, the molecule of interest (2.5 mM) was dissolved in anhydrous DMF with 100 mM NBu4PF6 as the supporting salt. Typical cyclic voltammograms were collected at a scan rate of […]. To study the effects of ionic species on the redox behaviour of the sorbent molecules, 100 mM LiClO4, NaClO4, KClO4, NBu4ClO4, sodium triflate (NaOTf), or sodium bis(trifluoromethanesulfonyl)imide (NaTFSI) was used as the supporting electrolyte salt.
# Solubility in DMF = assay type: physicochemical; details: for solubility: organic solvent or mixture
# [3] = Chronoamperometry: reaction rate constant between isoindigo radical anion and CO2; details: isoindigo 5 mM in DMF, 0.1 M NBu4PF6; for kbimolecular: first CO2 binding; for kf (20% CO2): forward rate constant
# From the text: In electrochemistry, the Cottrell equation describes the current response (i) when the potential is a step function in time (t):
# where i is current, n is the number of electrons transferred per molecule, A is the area of the electrode, C*0 is the bulk concentration of the redox-active isoindigo molecule, D is the diffusion coefficient, and t is time. The expected current for a diffusion limited electrochemical process following an ECE (electron transfer, chemical reaction, electron transfer) mechanism at a plane electrode under diffusion-controlled conditions is:
# where n1 and n2 are the number of electrons transferred in the first and second step, respectively, and kf is the forward reaction rate constant of the chemical reaction. Here, to calculate kf after the first electron transfer, n2 and n1 are set to 1. Eq 3 then becomes:
# The integrated Cottrell equation relates total charge Q with time for chronoamperometry: […]
# Then, the constant k can be calculated, here k is assumed constant:
# To calculate kf, the constant k is calculated using Eq 5 using potentiostatic measurements. Plugging in Eq 6, and rearranging Eq 4 gives:
# The data for determining kf is shown in FIGS. 22 to 25 using 5 mM sorbent molecules in 0.1 M NBu4PF6 DMF electrolyte. The value k was determined using data under N2; kf was obtained under 1 bar 20% CO2 (0.0396 M CO2 in solution).
# [4] = CO2 binding constant (KCO2) calculated from the shift of the second reduction peak in CV; details: for K[CO2] / logK[CO2]: DMF; for ΔEpeak(2): difference between the second reduction peak potentials (IId·−/IId2−) in CO2 and N2
# Procedure: as §1
# The CO2 binding constant (KCO2) was calculated by Eq 1: […]
# [5] = Flow-based EMCC prototype, cyclic CO2 capture/release; details: after 11 capture/release cycles over 50+ hours
# Procedure: In a typical experiment, the sorbent tank (20 mL scintillation vial with septum cap) was continuously bubbled with CO2 feed gas (balanced by N2) with the flow rate controlled by a mass flow controller (Alicat). For testing under simulated flue gas conditions, a gas mixture of 10% CO2+3% O2 balanced by N2 was used. An infrared-based CO2 sensor (SprintIR-W 100%) was connected at the gas exit to monitor the CO2 concentration continuously. The tank headspace was filled with plastic beads (McMaster-Carr) to limit the mixing time in the headspace. The Fc tank was kept air free. A two-channel peristaltic pump (Masterflex) circulated the sorbent and the Fc electrolyte to a commercial flow cell (Scribner) at a flow rate of 10 mL min^−1. The flow cell utilised graphite plates with 5 cm^2 interdigitated flow fields pressed against two pieces of carbon paper electrodes (Sigracet 28 AA) at each side of the graphite electrodes to distribute the liquid flow. A Nafion™ 115 membrane was sandwiched by two pieces of polypropylene and placed between the carbon paper electrodes. The cell was kept sealed by Kalrez fluoropolymer elastomer gaskets (0.02 inches thick). CO2 capture was conducted in a constant current mode while the release was carried out following a constant current/constant voltage protocol (that is, oxidizing the adduct at a constant current until a specific cut-off voltage followed by a constant voltage hold (the cut-off current for the constant voltage hold was 5% of the value used in the constant current oxidation). The cycling protocols of each experiment are provided in the corresponding figure captions.
# For experiments using 6MCIId sorbent, we added 10 mM 6MCIId and 4 mM ferrocenium tetrafluoroboronate (FcBF4) into the CE tank to mitigate sorbent crossover and facilitate the reduction of the oxidised ferrocenium in the counter electrolyte, respectively. For less soluble 55DBIId and 66DBIId, the sorbent was dispersed in DMAc to form a slurry catholyte.
Compound,Optical band gap [1] [eV],E1/2 in N2 (first) ([2]; 2.5 mM in DMF),E1/2 in N2 (second) ([2]; 2.5 mM in DMF) [V],E1/2 in CO2 (first or single) ([2]; 2.5 mM in DMF),Solubility in DMF (Solubility in DMF) [mM],K[CO2] ([4]; 298 K) [M⁻¹],logK[CO2] ([4]; 298 K),ΔEpeak(2) [4] [V],E1/2 (IId/IId·−) in N2 [2] [V vs. Fc^+/Fc],solubility (Solubility in DMF) [mM],logK[CO2] ([4]; Table 1),CO2 release at approximately −1 V vs. Fc^+/Fc in the presence of water ([2]; 10 vol % water),Experimental 1st half-wave potential in N2 [2] [V],"Electrochemical behaviours in the presence of O2 ([2]; up to 16% CO2 and 20% O2, 2.5 mM in DMF, 0.1 M NBu4PF6)",Sorbent recovered from the sorbent electrolyte after cycling [5] [%],Sorbent isomerized into cis-isomer after cycling ([5]; 1H NMR),"Positive shift of E1/2 under CO2 compared to unmodified IId ([2]; under CO2, DMF) [mV]",E1/2 in CO2 (second) ([2]; 2.5 mM in DMF) [V],kbimolecular [3],kf (20% CO2) [3] [s⁻¹]
"COC(=O)CNC(=O)c1ccc2c(c1)NC(=O)/C2=C1/C(=O)Nc2ccccc21 [6AIIdGly, Methyl isoindigo-6-carbonylglycinate]",2.04,"−1.17, V",−1.62,−1.08 V,606,4.3e+08,8.63,0.469,,,,,,,,,,,19.85 M⁻¹ s⁻¹,0.786
"COC(=O)c1ccc2c(c1)NC(=O)/C2=C1/C(=O)Nc2ccccc21 [6MCIId, Methyl isoindigo-6-carboxylate]",2.03,"−1.12, V",−1.62,−1.09 V,,7.78e+08,8.89,0.484,−1.12,515,8.89,,,,,,,,22.45 M⁻¹ s⁻¹,0.889
"O=C1Nc2ccc(Br)cc2/C1=C1\C(=O)Nc2ccc(Br)cc21 [55DBIId, 5,5′-Dibromoisoindigo]",1.99,"−1.09 V and −1.09, V",−1.61,−1.09 V,,2.16e+09,9.33,0.510,−1.09,6.3,9.33,gets suppressed,−1.09,remained almost unaffected,,,,,,
"O=C1Nc2cc(Br)ccc2/C1=C1\C(=O)Nc2cc(Br)ccc21 [66DBIId, 6,6′-Dibromoisoindigo]",2.06,,−1.67,−1.12 V,,38800,9.59,0.525,−1.14,,9.59,,−1.14,,87,approximately 24%,,,18.64 M⁻¹ s⁻¹,0.738
"COC(=O)c1ccc2c(c1)NC(=O)/C2=C1/C(=O)Nc2cc(C(=O)OC)ccc21 [66DMCIId, Dimethyl isoindigo-6,6′-dicarboxylate]",2.02,"−0.97, V",−1.41,−0.91 V,<2.5,1.17e+08,8.07,0.435,,< 2.5,,,,,,,300,,,

# Further lines, with some results ahead:
Optical band gap [1] [eV],E1/2 in N2 (first) ([2]; 2.5 mM in DMF),E1/2 in N2 (second) ([2]; 2.5 mM in DMF) [V],E1/2 in CO2 (first or single) ([2]; 2.5 mM in DMF),Solubility in DMF (Solubility in DMF) [mM],K[CO2] ([4]; 298 K) [M⁻¹],logK[CO2] ([4]; 298 K),ΔEpeak(2) [4] [V],E1/2 (IId/IId·−) in N2 [2] [V vs. Fc^+/Fc],solubility (Solubility in DMF) [mM],logK[CO2] ([4]; Table 1),CO2 release at approximately −1 V vs. Fc^+/Fc in the presence of water ([2]; 10 vol % water),Experimental 1st half-wave potential in N2 [2] [V],"Electrochemical behaviours in the presence of O2 ([2]; up to 16% CO2 and 20% O2, 2.5 mM in DMF, 0.1 M NBu4PF6)",Sorbent recovered from the sorbent electrolyte after cycling [5] [%],Sorbent isomerized into cis-isomer after cycling ([5]; 1H NMR),"Positive shift of E1/2 under CO2 compared to unmodified IId ([2]; under CO2, DMF) [mV]",E1/2 in CO2 (second) ([2]; 2.5 mM in DMF) [V],Compound,kbimolecular [3],kf (20% CO2) [3] [s⁻¹]
2.02,"−1.10, V",−1.68,−1.1 V,,2.17e+10,10.3,0.570,,,,,,,,,,,"O=C1Nc2cc(F)c(F)cc2/C1=C1\C(=O)Nc2cc(F)c(F)cc21 [5566TFIId, 5,5′,6,6′-Tetrafluoroisoindigo]",,
2.04,"−1.29 V and −1.29, V",−1.79,−1.21 V,,2.19e+09,9.34,0.511,−1.29,~230,9.34,,−1.29,,,,,,"O=C1Nc2ccccc2/C1=C1\C(=O)Nc2ccccc21 [IId, Isoindigo]",,
2.00,"−1.23, V",−1.80,"−1.16, V",,4.19e+06,6.62,0.350,,,,,,,,,,−1.45,"CCCCC(CC)CN1C(=O)/C(=C2/C(=O)N(CC(CC)CCCC)c3ccccc32)c2ccccc21 (stereo not drawn) [NNDEHIId, N,N′-Di-(2-ethylhexyl)-isoindigo]",,
2.02,"−1.07, V",−1.61,"−1.08, V",,74800,4.48,0.247,−1.07,,4.87,,,,,,,−1.34,"CCCN1C(=O)/C(=C2/C(=O)N(CCC)c3cc(Br)ccc32)c2ccc(Br)cc21 [NNDPr66DBIId, N,N′-Dipropyl-6,6′-dibromoisoindigo]",3.3 M⁻¹ s⁻¹ and 3.31 M⁻¹ s⁻¹,0.131
